In ChEMBL document CHEMBL3390836, “Mannich- and LedererManasse-based analogues of the natural product S-(+)-curcuphenol as cancer proliferation and migration inhibitors” (Medchemcomm, 2012):

What was measured:
Type in all cases: functional
[1] = system: SW-620; experiment: Cytotoxicity against human SW620 cells assessed as cell growth at 10^-7 M after 48 hrs by SRB assay relative to control; settings: SW-620, 48 h, read-out: Activity
[2] = system: HT-29; experiment: Cytotoxicity against human HT-29 cells assessed as cell growth at 10^-6 M after 48 hrs by SRB assay relative to control; settings: HT-29, 48 h, read-out: Activity
[3] = system: A549; experiment: Cytotoxicity against human A549 cells after 48 hrs by SRB assay; settings: A549, 48 h
[4] = system: K562; experiment: Cytotoxicity against human K562 cells assessed as cell growth at 10^-8 M after 48 hrs by SRB assay relative to control; settings: K562, 48 h, read-out: Activity
[5] = system: SF-268; experiment: Cytotoxicity against human SF268 cells after 48 hrs by SRB assay; settings: SF-268, 48 h; for CC50: read-out: LC50 (the source's name)
[6] = Cytotoxicity against human Hs 578T cells assessed as cell growth at 10^-6 M after 48 hrs by SRB assay relative to control; settings: read-out: Activity
[7] = Cytotoxicity against human UACC257 cells assessed as cell growth at 10^-7 M after 48 hrs by SRB assay relative to control; settings: UACC-257, 48 h, read-out: Activity
[8] = system: 786-0; experiment: Cytotoxicity against human 786-0 cells assessed as cell growth at 10^-7 M after 48 hrs by SRB assay relative to control; settings: 786-0, 48 h, read-out: Activity
[9] = system: M14; experiment: Cytotoxicity against human M14 cells assessed as cell growth at 10^-8 M after 48 hrs by SRB assay relative to control; settings: M14, 48 h, read-out: Activity
[10] = system: SF-295; experiment: Cytotoxicity against human SF295 cells assessed as cell growth at 10^-7 M after 48 hrs by SRB assay relative to control; settings: SF-295, 48 h, read-out: Activity
[11] = system: K562; experiment: Cytotoxicity against human K562 cells after 48 hrs by SRB assay; settings: K562, 48 h; for CC50: read-out: LC50 (the source's name)
[12] = system: HOP-62; experiment: Cytotoxicity against human HOP62 cells assessed as cell growth at 10^-7 M after 48 hrs by SRB assay relative to control; settings: HOP-62, 48 h, read-out: Activity
[13] = system: MDA-MB-435; experiment: Cytotoxicity against human MDA-MB-435 cells assessed as cell growth at 10^-7 M after 48 hrs by SRB assay relative to control; settings: MDA-MB-435, 48 h, read-out: Activity
[14] = system: MDA-MB-435; experiment: Cytotoxicity against human MDA-MB-435 cells assessed as cell growth at 10^-4 M after 48 hrs by SRB assay relative to control; settings: MDA-MB-435, 48 h, read-out: Activity
[15] = Cytotoxicity against human NCI-ADR-RES cells assessed as cell growth at 10^-4 M after 48 hrs by SRB assay relative to control; settings: read-out: Activity
[16] = Cytotoxicity against human HCT15 cells assessed as cell growth at 10^-8 M after 48 hrs by SRB assay relative to control; settings: HCT-15, 48 h, read-out: Activity
[17] = system: RPMI-8226; experiment: Cytotoxicity against human RPMI8226 cells assessed as cell growth at 10^-7 M after 48 hrs by SRB assay relative to control; settings: RPMI-8226, 48 h, read-out: Activity
[18] = system: KM12; experiment: Cytotoxicity against human KM12 cells assessed as cell growth at 10^-8 M after 48 hrs by SRB assay relative to control; settings: KM12, 48 h, read-out: Activity
[19] = Cytotoxicity against human HCT116 cells assessed as cell growth at 10^-6 M after 48 hrs by SRB assay relative to control; settings: HCT-116, 48 h, read-out: Activity
[20] = system: SK-MEL-28; experiment: Cytotoxicity against human SK-MEL-28 cells assessed as cell growth at 10^-7 M after 48 hrs by SRB assay relative to control; settings: SK-MEL-28, 48 h, read-out: Activity
[21] = system: SK-MEL-2; experiment: Cytotoxicity against human SK-MEL-2 cells assessed as cell growth at 10^-4 M after 48 hrs by SRB assay relative to control; settings: SK-MEL-2, 48 h, read-out: Activity
[22] = system: A549; experiment: Cytotoxicity against human A549 cells assessed as cell growth at 10^-4 M after 48 hrs by SRB assay relative to control; settings: A549, 48 h, read-out: Activity
[23] = system: RPMI-8226; experiment: Cytotoxicity against human RPMI8226 cells assessed as cell growth at 10^-4 M after 48 hrs by SRB assay relative to control; settings: RPMI-8226, 48 h, read-out: Activity
[24] = Cytotoxicity against human OVCAR3 cells assessed as cell growth at 10^-6 M after 48 hrs by SRB assay relative to control; settings: OVCAR-3, 48 h, read-out: Activity
[25] = system: IGROV-1; experiment: Cytotoxicity against human IGROV1 cells assessed as cell growth at 10^-6 M after 48 hrs by SRB assay relative to control; settings: IGROV-1, 48 h, read-out: Activity
[26] = system: MDA-MB-468; experiment: Cytotoxicity against human MDA-MB-468 cells assessed as cell growth at 10^-8 M after 48 hrs by SRB assay relative to control; settings: MDA-MB-468, 48 h, read-out: Activity
[27] = system: NCI-H23; experiment: Cytotoxicity against human NCI-H23 cells assessed as cell growth at 10^-7 M after 48 hrs by SRB assay relative to control; settings: NCI-H23, 48 h, read-out: Activity
[28] = system: M14; experiment: Cytotoxicity against human M14 cells assessed as cell growth at 10^-4 M after 48 hrs by SRB assay relative to control; settings: M14, 48 h, read-out: Activity
[29] = Cytotoxicity against human SKOV3 cells assessed as cell growth at 10^-8 M after 48 hrs by SRB assay relative to control; settings: SK-OV-3, 48 h, read-out: Activity
[30] = system: SN12C; experiment: Cytotoxicity against human SN12C cells after 48 hrs by SRB assay
[31] = Cytotoxicity against human OVCAR4 cells assessed as cell growth at 10^-8 M after 48 hrs by SRB assay relative to control; settings: OVCAR-4, 48 h, read-out: Activity
[32] = system: SK-MEL-2; experiment: Cytotoxicity against human SK-MEL-2 cells assessed as cell growth at 10^-8 M after 48 hrs by SRB assay relative to control; settings: SK-MEL-2, 48 h, read-out: Activity
[33] = Cytotoxicity against human EKVX cells assessed as cell growth at 10^-7 M after 48 hrs by SRB assay relative to control; settings: read-out: Activity
[34] = system: NCI-H522; experiment: Cytotoxicity against human NCI-H522 cells assessed as cell growth at 10^-8 M after 48 hrs by SRB assay relative to control; settings: NCI-H522, 48 h, read-out: Activity
[35] = system: SR; experiment: Cytotoxicity against human SR cells after 48 hrs by SRB assay; settings: for CC50: read-out: LC50 (the source's name)
[36] = system: DU-145; experiment: Cytotoxicity against human DU145 cells assessed as cell growth at 10^-4 M after 48 hrs by SRB assay relative to control; settings: DU-145, 48 h, read-out: Activity

In the case of `COc1ccc(CCN2COc3c([C@@H](C)CCC=C(C)C)ccc(C)c3C2)cc1OC`, the growth at 0.1 µM [1] is reported as 93%, the growth at 1 µM [2] is reported as 91% and the GI50 [3] is reported as 10.3 µM. For the same compound, the LC50 [3] was 96.3 µM, the TGI [3] was 31.5 µM and the growth at 0.01 µM [4] was 102%. The GI50 [5] was 1.45 µM, the TGI [5] was 4.34 µM and the CC50 [5] was 17.3 µM. It also gave a growth at 1 µM [6] of 93%, a growth at 0.1 µM [7] of 91% and a growth at 0.1 µM [8] of 65%. For the same compound, the growth at 0.01 µM [9] was 95%, the growth at 0.1 µM [10] was 92% and the GI50 [11] was 3700 nM. The TGI [11] was 93.5 µM, the CC50 [11] was > 100 µM and the growth at 0.1 µM [12] was 96%. It also gave a growth at 0.1 µM [13] of 95%, a growth at 100 µM [14] of -78% and a growth at 100 µM [15] of -90%. The growth at 0.01 µM [16] was 85%, the growth at 0.1 µM [17] was 93% and the growth at 0.01 µM [18] was 98%. For the same compound, the growth at 1 µM [19] was 97%, the growth at 0.1 µM [20] was 84% and the growth at 100 µM [21] was -95%. For the same compound, the growth at 100 µM [22] was -52%, the growth at 100 µM [23] was -28% and the growth at 1 µM [24] was 91%. It also gave a growth at 1 µM [25] of 53%, a growth at 0.01 µM [26] of 75% and a growth at 0.1 µM [27] of 107%. For the same compound, the growth at 100 µM [28] was -100%, the growth at 0.01 µM [29] was 97% and the GI50 [30] was 3.27 µM. It also gave an LC50 [30] of 36.8 µM, a TGI [30] of 13.5 µM and a growth at 0.01 µM [31] of 96%. The growth at 0.01 µM [32] was 93% and the growth at 0.1 µM [33] was 91%.
In the case of `CC(C)=CCC[C@H](C)c1ccc(C)c(CNCC2CCNCC2)c1O`, the growth at 0.1 µM [1] is reported as 95%, the growth at 1 µM [2] is reported as 113% and the GI50 [3] is reported as 7.27 µM. For the same compound, the LC50 [3] was > 25 µM, the TGI [3] was 24.9 µM and the growth at 0.01 µM [4] was 103%. The GI50 [5] was 7.12 µM, the TGI [5] was > 25 µM and the CC50 [5] was > 25 µM. The growth at 1 µM [6] was 97%, the growth at 0.01 µM [34] was 98% and the growth at 0.1 µM [7] was 95%. For the same compound, the growth at 0.1 µM [8] was 87%, the growth at 0.1 µM [10] was 91% and the GI50 [35] was 3.71 µM. For the same compound, the TGI [35] was 9.67 µM, the CC50 [35] was > 25 µM and the GI50 [11] was 1010 nM. For the same compound, the TGI [11] was 4.86 µM, the CC50 [11] was 19.9 µM and the growth at 0.1 µM [12] was 95%. The growth at 0.1 µM [13] was 92%, the growth at 100 µM [14] was -66% and the growth at 100 µM [15] was 46%. The growth at 0.01 µM [16] was 102%, the growth at 0.01 µM [18] was 97% and the growth at 1 µM [19] was 105%. It also gave a growth at 0.1 µM [20] of 100%, a growth at 100 µM [21] of -70% and a growth at 1 µM [24] of 103%. The growth at 1 µM [25] was 98%, the growth at 0.01 µM [26] was 95% and the growth at 100 µM [36] was 41%. The growth at 0.1 µM [27] was 94%, the growth at 0.01 µM [29] was 99% and the GI50 [30] was 12.9 µM. The LC50 [30] was > 25 µM, the TGI [30] was > 25 µM and the growth at 0.01 µM [31] was 100%. The growth at 0.01 µM [32] was 102% and the growth at 0.1 µM [33] was 94%.
For `CC(C)=CCC[C@H](C)c1ccc(C)c2c1OCN(CC1CCNCC1)C2`, the growth at 0.1 µM [1] was 100%, the growth at 1 µM [2] was 103% and the GI50 [3] was 13 µM. It also gave an LC50 [3] of 59.7 µM, a TGI [3] of 27.8 µM and a growth at 0.01 µM [4] of 97%. For the same compound, the GI50 [5] was 16.6 µM, the TGI [5] was 33.3 µM and the CC50 [5] was 66.7 µM. For the same compound, the growth at 1 µM [6] was 104%, the growth at 0.01 µM [34] was 87% and the growth at 0.1 µM [8] was 88%. It also gave a growth at 0.01 µM [9] of 96%, a growth at 0.1 µM [10] of 94% and a GI50 [35] of 2.79 µM. For the same compound, the TGI [35] was 9.83 µM, the CC50 [35] was > 100 µM and the GI50 [11] was 2680 nM. For the same compound, the TGI [11] was 8.44 µM, the CC50 [11] was 97.7 µM and the growth at 0.1 µM [12] was 94%. It also gave a growth at 0.1 µM [13] of 96%, a growth at 100 µM [14] of -83% and a growth at 100 µM [15] of -73%. It also gave a growth at 0.01 µM [16] of 93%, a growth at 0.1 µM [17] of 102% and a growth at 0.01 µM [18] of 99%. For the same compound, the growth at 1 µM [19] was 104%, the growth at 0.1 µM [20] was 101% and the growth at 100 µM [21] was -78%. For the same compound, the growth at 100 µM [22] was -84%, the growth at 100 µM [23] was -38% and the growth at 1 µM [24] was 105%. For the same compound, the growth at 1 µM [25] was 106%, the growth at 0.01 µM [26] was 94% and the growth at 100 µM [36] was -94%. It also gave a growth at 0.1 µM [27] of 94%, a growth at 100 µM [28] of -80% and a growth at 0.01 µM [29] of 101%. It also gave a GI50 [30] of 14.2 µM, an LC50 [30] of 58.7 µM and a TGI [30] of 28.9 µM. It also gave a growth at 0.01 µM [31] of 102%, a growth at 0.01 µM [32] of 108% and a growth at 0.1 µM [33] of 103%.
